We go through eight compounds from patent publication US20020155381A1, “Optical data carrier comprising a light-absorbent compound having a plurality of chromophoric centres in the information layer” (priority 2001, published 2002).

What all share (assay type): physicochemical
Series [1] can be described thus: Solubility in coating solvent.
Series [2] in a line: Spin coating on fused silica support: film quality and film thickness from transmission and reflection spectra. The conditions noted are these: for kind of film obtained by spin coating: 1-2 parts of solid per 100 in TFP or THF; for film thickness: spin coated from 1 part of solid to 99 parts of TFP, before vacuum. As to the method:
A 1/1 mixture (by mass) of substances of the following formulae was dissolved in tetrafluoropropanol (TFP) in a mass ratio of 2 parts of solid to 98 parts of TFP. […] Evaluation of the transmission and reflection spectra indicated a film thickness of 165 nm. [drawing 62]
(§1) Determination of the complex index of refraction and the thickness of the layer of the organic substances by means of transmission and reflection spectra:
(§2) The transmission and reflection spectra of the layer systems film/fused silica or SiN/film/fused silica or SiN/fused silica were determined with perpendicular incidence of a parallel beam of light in a wavelength range of from 200 nm to 1 700 nm. […] The reflected light was detected at an angle of 172° relative to the direction of incidence. Two different thicknesses of the organic film were in each case produced by spin coating. The thickness of the layer was adjusted by means of the solution concentration. The thicknesses were in the range from 50 nm to 500 nm. To evaluate the transmission and reflection spectra, the known Fresnel formulae were employed and the interferences caused by multiple reflection in the layer system were taken into account. A simultaneous least squares fit of the measured transmission and reflection spectra to the calculated spectra of the two layer systems of differing thickness enabled the layer thicknesses and the complex index of refraction of the organic substance to be determined at each wavelength. For this purpose, the index of refraction of the fused silica support has to be known. The index of refraction curve of the fused silica substrate in this spectral range was determined independently on an uncoated substrate.

Series [3] can be described thus: Vacuum treatment of the spin-coated film (simulated sputtering conditions), layer thickness afterwards. The note with it: vacuum ~10^-6 mbar, 1 hour, room temperature. As to the method:
This film was subjected to a vacuum (pressure ˜10^−6 mbar) for 1 hour at room temperature to simulate the conditions when applying metallic or dielectric layers by sputtering during the production of optical data carriers.
as §1, §2

The nature of series [4]: SiN vapour deposition on the organic film, apparent thickness of the organic film. As to the method:
A layer of SiN was subsequently applied by vapour deposition on top of the layer which had been pretreated in the above-described manner. Vapour deposition was carried out by electric heating of Si3N4 in a molybdenum boat under reduced pressure. The pressure during the vapour deposition process was ˜10^−4 mbar, and the deposition rate was ˜4-5 Angström per second. To determine the complex index of refraction of the deposited SiN layer, control experiments were carried out on plain fused silica plates. The thickness of the SiN layer was determined by means of a profiler (Tencor Alpha Step 500 Surface Profiler). In turn, evaluation of the transmission and reflection spectra of the layer system taking into account the complex index of refraction and the thickness of the SiN layer enabled the apparent thickness of the organic film to be determined. It was 94 nm. […]
The transmission and reflection spectra of the layer systems film/fused silica or SiN/film/fused silica or SiN/fused silica were determined with perpendicular incidence of a parallel beam of light in a wavelength range of from 200 nm to 1 700 nm. […] The reflected light was detected at an angle of 172° relative to the direction of incidence. […] The index of refraction curve of the fused silica substrate in this spectral range was determined independently on an uncoated substrate.

In turn, `CN(CCOC(=O)CCC(=O)OCCN(C)c1ccc(C(C#N)=C(C#N)C#N)cc1)c1ccc(C(C#N)=C(C#N)C#N)cc1` [Example 5] showed a solubility in series [1] (in TFP (tetrafluoropropanol)) of 1%.

For `N#C/C(=C\c1cccn1CCCn1cccc1/C=C(\C#N)c1ccccc1)c1ccccc1` [Example 9], the solubility in series [1] (in diacetone alcohol) stood at 2%.

As for `CC1(C)CC(=O)C(=Cc2ccc(N3CCN(c4ccc(C=C5C(=O)CC(C)(C)CC5=O)o4)CC3)o2)C(=O)C1` [Example 10], in series [1] (in TFP (tetrafluoropropanol)), the solubility is 2%.

With `CCN(CC)c1ccc(/C=C/c2cc[n+](Cc3ccccc3C[n+]3ccc(/C=C/c4ccc(N(CC)CC)cc4)cc3)cc2)cc1` [Example 12], the solubility in series [1] (in TFP (tetrafluoropropanol)) amounted to 2%.

In the case of `CN(CCC#N)c1ccc(/C=C/C2=[N+](CCCC[N+]3=C(/C=C/c4ccc(N(C)CCC#N)cc4)C(C)(C)c4ccccc43)c3ccccc3C2(C)C)cc1` [Example 13], the solubility in series [1] (in TFP (tetrafluoropropanol)) is on record as 2%.

For the compound `COc1cc2c(cc1OC)C(C)(C)C/C2=C(/C#N)C(=O)OCCOC(=O)/C(C#N)=C1\CC(C)(C)c2cc(OC)c(OC)cc21` [Example II], in series [2], the “kind of film obtained by spin coating” value is “transparent film” and the film thickness is 85 nm. Besides, in series [3], the “retention of the substance after vacuum treatment” value is recorded as “fully retained” and the “total thickness d of the layer after vacuum treatment” value is on record as 85 nm.

Turning to `CCCOC(=O)/C(C#N)=C/c1ccc(C)o1` [Example IV, reference compound], in series [2], the “kind of film obtained by spin coating” value is recorded as “crystalline film”.

For the compound `Cc1ccc(/C=C(\C#N)C(=O)OCC(C)(COC(=O)/C(C#N)=C/c2ccc(C)o2)COC(=O)/C(C#N)=C/c2ccc(C)o2)o1` [Example V], in series [2], the “kind of film obtained by spin coating” value is on record as “transparent film” and the film thickness was found to be 153 nm. In series [3], the “retention of the substance after vacuum treatment” value is reported as “virtually fully retained” and the “total thickness d of the layer after vacuum treatment” value was 143 nm. Also, the “change of the layer by the SiN vapour deposition process” value in series [4] (SiN deposited at ~10^-4 mbar on vacuum-pretreated layer) is listed as “the layer has not been changed”. For the same compound, the “apparent thickness of the organic film after SiN vapour deposition” value in series [4] (SiN deposited at ~10^-4 mbar, ~4-5 Angström per second, on vacuum-pretreated layer) stood at 160 nm.
